Reference: US11274332B2, “Methods of administering 3,4-diaminopyridine” (SERB SA, priority 2011, dated 2022)
“And” between values parts separate entries of the source, which are not always exact repeats. Equal values may be shown once.

Experiment: Food-effect crossover study, adverse events after single 20 mg amifampridine phosphate in healthy subjects (Examples 10, 11)
Assay type: in vivo
Description: This was a randomized, open-label, 2-treatment, 2-period crossover study with 44 completed subjects to assess the safety, tolerability, and the effect of food on the relative bioavailability of a single dose of amifampridine phosphate.
Safety was evaluated for all subjects who take at least one dose of 3,4-DAP. Safety was evaluated by recording the incidence of adverse events (AEs), physical examination, vital signs, concomitant medications, clinical laboratory assessments, and 12-lead electrocardiogram (ECG).
Analysis for the following safety parameters was carried out on the Safety Population: AEs which included all AEs, AEs by severity, drug-related AEs, deaths, SAEs, AEs leading to study discontinuation, and most frequent AEs, standard clinical laboratory tests, vital signs, ECG measurements, routine physical examinations, and prior and concomitant medications. The cut-off for frequency of AEs reported was determined based on the data. No formal statistical testing was performed for the safety analyses; only descriptive statistics were provided. Appropriate descriptive statistics for the safety data were determined using SAS Version 9.2.
AEs were coded according to the Medical Dictionary for Regulatory Activities (MedDRA; Version 13.0). […] The occurrence of AEs was assessed continuously from the time the subject signed the VID and consent. The reporting period for non-serious AEs was from the first dose to the final study visit. The investigator determined the severity of each event and the relationship of an AE to the IP and recorded it on the source documents and AE CRF. The nature, time of onset, duration, severity, and relationship to study drug was documented, including documentation of investigator assessment and review. All events were assessed to determine if the AE was serious.
The Investigator determined the severity of each event and the event was recorded on the source documents and AE CRF. A coding of “mild” meant there was no limitation of usual activities, “moderate” meant there was some limitation of usual activities, “severe” meant there was an inability to carry out usual activities.
The reporting period for AEs that met the criteria of an SAE began from the time of signing the VID and consent form through follow-up or early termination. […] Clinical Laboratory Assessments

## Nc1ccncc1N.O=P(O)(O)O [amifampridine phosphate, 3,4-diaminopyridine phosphate]
Fed N=46
  Diarrhoea, drug-related AE: % of subjects: (0%) [0]
  Diarrhoea, drug-related AE: events: (0%) [0]
  Diarrhoea, drug-related AE: subjects: 0
  Discontinued due to adverse events: % of subjects: 2%
  Discontinued due to adverse events: events: 1
  Discontinued due to adverse events: subjects: 1
  Dizziness, drug-related AE: % of subjects: 4%
  Dizziness, drug-related AE: events: 2
  Dizziness, drug-related AE: subjects: 2
  Dysgeusia, drug-related AE: % of subjects: 4%
  Dysgeusia, drug-related AE: events: 2
  Dysgeusia, drug-related AE: subjects: 2
  Fatigue, drug-related AE: % of subjects: 7%
  Fatigue, drug-related AE: events: 3
  Fatigue, drug-related AE: subjects: 3
  Feeling Hot, drug-related AE: % of subjects: (0%) [0]
  Feeling Hot, drug-related AE: events: (0%) [0]
  Feeling Hot, drug-related AE: subjects: 0
  Flushing, drug-related AE: % of subjects: 2%
  Flushing, drug-related AE: events: 1
  Flushing, drug-related AE: subjects: 1
  Gastrointestinal Disorders Total, drug-related AE: % of subjects: 4%
  Gastrointestinal Disorders Total, drug-related AE: events: 2
  Gastrointestinal Disorders Total, drug-related AE: subjects: 2
  General Disorders and Administration Site Conditions Total, drug-related AE: % of subjects: 7%
  General Disorders and Administration Site Conditions Total, drug-related AE: events: 3
  General Disorders and Administration Site Conditions Total, drug-related AE: subjects: 3
  Headache, drug-related AE: % of subjects: 2%
  Headache, drug-related AE: events: 1
  Headache, drug-related AE: subjects: 1
  Hypoaesthesia Facial, drug-related AE: % of subjects: (0%) [0]
  Hypoaesthesia Facial, drug-related AE: events: (0%) [0]
  Hypoaesthesia Facial, drug-related AE: subjects: 0
  Hypoaesthesia Oral, drug-related AE: % of subjects: 7%
  Hypoaesthesia Oral, drug-related AE: events: 3
  Hypoaesthesia Oral, drug-related AE: subjects: 3
  Hypoaesthesia, drug-related AE: % of subjects: (0%) [0]
  Hypoaesthesia, drug-related AE: events: (0%) [0]
  Hypoaesthesia, drug-related AE: subjects: 0
  Nausea, drug-related AE: % of subjects: 2%
  Nausea, drug-related AE: events: 1
  Nausea, drug-related AE: subjects: 1
  Nervous System Disorders Total, drug-related AE: % of subjects: 37%
  Nervous System Disorders Total, drug-related AE: events: 31
  Nervous System Disorders Total, drug-related AE: subjects: 17
  Paraesthesia Oral, drug-related AE: % of subjects: 28%
  Paraesthesia Oral, drug-related AE: events: 15
  Paraesthesia Oral, drug-related AE: subjects: 13
  Paraesthesia, drug-related AE: % of subjects: 15%
  Paraesthesia, drug-related AE: events: 8
  Paraesthesia, drug-related AE: subjects: 7
  Possibly or probably related AEs, Mild: % of subjects: 46%
  Possibly or probably related AEs, Mild: events: 37
  Possibly or probably related AEs, Mild: subjects: 21
  Possibly or probably related AEs, Moderate: % of subjects: (0%) [0]
  Possibly or probably related AEs, Moderate: events: (0%) [0]
  Possibly or probably related AEs, Moderate: subjects: 0
  Possibly or probably related AEs, Severe: % of subjects: (0%) [0]
  Possibly or probably related AEs, Severe: events: (0%) [0]
  Possibly or probably related AEs, Severe: subjects: 0
  Possibly or probably related AEs, Total: % of subjects: 46%
  Possibly or probably related AEs, Total: events: 37
  Possibly or probably related AEs, Total: subjects: 21
  Serious adverse events: % of subjects: (0%) [0]
  Serious adverse events: events: (0%) [0]
  Serious adverse events: subjects: 0
  Skin and Subcutaneous Tissue Disorders Total, drug-related AE: % of subjects: (0%) [0]
  Skin and Subcutaneous Tissue Disorders Total, drug-related AE: events: (0%) [0]
  Skin and Subcutaneous Tissue Disorders Total, drug-related AE: subjects: 0
  Vascular Disorders Total, drug-related AE: % of subjects: 2%
  Vascular Disorders Total, drug-related AE: events: 1
  Vascular Disorders Total, drug-related AE: subjects: 1
Fed N=46, phosphate
  All treatment emergent AEs, Total: subjects: 24 and 23
Female N=16
  Abdominal Pain Upper, drug-related AE: % of subjects: 6%
  Abdominal Pain Upper, drug-related AE: events: 1
  Abdominal Pain Upper, drug-related AE: subjects: 1
  Abdominal Pain, drug-related AE: % of subjects: 13%
  Abdominal Pain, drug-related AE: events: 2
  Abdominal Pain, drug-related AE: subjects: 2
  Abdominal Tenderness, drug-related AE: % of subjects: 6%
  Abdominal Tenderness, drug-related AE: events: 1
  Abdominal Tenderness, drug-related AE: subjects: 1
  Acne, drug-related AE: % of subjects: (0%) [0]
  Acne, drug-related AE: events: (0%) [0]
  Acne, drug-related AE: subjects: 0
  All treatment emergent AEs, Mild: % of subjects: 75%
  All treatment emergent AEs, Mild: events: 41
  All treatment emergent AEs, Mild: subjects: 12
  All treatment emergent AEs, Moderate: % of subjects: 13%
  All treatment emergent AEs, Moderate: events: 2
  All treatment emergent AEs, Moderate: subjects: 2
  All treatment emergent AEs, Severe: % of subjects: (0%) [0]
  All treatment emergent AEs, Severe: events: (0%) [0]
  All treatment emergent AEs, Severe: subjects: 0
  All treatment emergent AEs, Total: events: 43
  All treatment emergent AEs, Total: subjects: 12
  Constipation, drug-related AE: % of subjects: 6%
  Constipation, drug-related AE: events: 1
  Constipation, drug-related AE: subjects: 1
  Diarrhoea, drug-related AE: % of subjects: 6%
  Diarrhoea, drug-related AE: events: 1
  Diarrhoea, drug-related AE: subjects: 1
  Discontinued due to adverse events: % of subjects: (0%) [0]
  Discontinued due to adverse events: events: (0%) [0]
  Discontinued due to adverse events: subjects: 0
  Dizziness, drug-related AE: % of subjects: 25%
  Dizziness, drug-related AE: events: 5
  Dizziness, drug-related AE: subjects: 4
  Dysgeusia, drug-related AE: % of subjects: (0%) [0]
  Dysgeusia, drug-related AE: events: (0%) [0]
  Dysgeusia, drug-related AE: subjects: 0
  Fatigue, drug-related AE: % of subjects: 13%
  Fatigue, drug-related AE: events: 2
  Fatigue, drug-related AE: subjects: 2
  Feeling Hot, drug-related AE: % of subjects: (0%) [0]
  Feeling Hot, drug-related AE: events: (0%) [0]
  Feeling Hot, drug-related AE: subjects: 0
  Flushing, drug-related AE: % of subjects: 6%
  Flushing, drug-related AE: events: 1
  Flushing, drug-related AE: subjects: 1
  Gastrointestinal Disorders Total, drug-related AE: % of subjects: 31%
  Gastrointestinal Disorders Total, drug-related AE: events: 8
  Gastrointestinal Disorders Total, drug-related AE: subjects: 5
  General Disorders and Administration Site Conditions Total, drug-related AE: % of subjects: 13%
